In US20230167088A1, “1-PYRAZINYLPYRAZOLYL-3-OXYALKYL ACIDS AND THEIR DERIVATIVES, AND THEIR USE FOR CONTROL OF UNDESIRED PLANT GROWTH” (BAYER AKTIENGESELLSCHAFT, priority 2020, published 2023):

Legend:
ALOMY [1] = experiment: Herbicidal post-emergence action 1a (greenhouse pots, visual rating); format: in vivo, Alopecurus myosuroides; conditions: rated visually about 3 weeks after treatment, 100% = plants have died, 0% = like control plants
Summary of the method: (§1)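 Visual scoring versus untreated plants (100% = plants dead, 0% = as control) followed roughly 3 weeks in the greenhouse after treatment. Plants grown in sandy loam pots had been sprayed on green parts at the one-leaf stage, 2–3 weeks post-sowing, with aqueous WP/EC preparations containing 0.5% additive, 600 l/ha, at 320 and/or 80 g/ha.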

AVEFA [2] = experiment: as above; format: in vivo, Avena fatua; conditions: rated visually about 3 weeks after treatment, 100% = plants have died, 0% = like control plants
Summary of the method: as §1

ECHCG [3] = experiment: as above; format: in vivo, Echinochloa crus-galli; conditions: rated visually about 3 weeks after treatment, 100% = plants have died, 0% = like control plants
Summary of the method: as §1

LOLRI [4] = experiment: as above; format: in vivo, Lolium rigidum; conditions: rated visually about 3 weeks after treatment, 100% = plants have died, 0% = like control plants
Summary of the method: as §1

SETVI [5] = experiment: as above; format: in vivo, Setaria viridis; conditions: rated visually about 3 weeks after treatment, 100% = plants have died, 0% = like control plants
Summary of the method: as §1

AMARE [6] = experiment: as above; format: in vivo, Amaranthus retroflexus; conditions: visual rating about 3 weeks after treatment
Summary of the method: as §1

MATIN [7] = experiment: as above; format: in vivo, Matricaria inodora; conditions: visual rating about 3 weeks after treatment
Summary of the method: as §1

PHBPU [8] = experiment: as above; format: in vivo, Pharbitis purpurea; conditions: visual rating about 3 weeks after treatment
Summary of the method: as §1

POLCO [9] = experiment: as above; format: in vivo, Polygonum convolvulus; conditions: visual rating about 3 weeks after treatment
Summary of the method: as §1

VERPE [10] = experiment: as above; format: in vivo, Veronica persica; conditions: visual rating about 3 weeks after treatment
Summary of the method: as §1

ALOMY [11] = experiment: Herbicidal pre-emergence action 2a (greenhouse pots, visual scoring); format: in vivo, Alopecurus myosuroides; conditions: dosage 320 g/ha, visual scoring after about 3 weeks
Summary of the method: (§2)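 Pre-emergence soil-surface spray: WP/EC, 0.5% additive, 600 l/ha water, 320 and/or 80 g/ha. Greenhouse ~3 wk. Visual % damage vs untreated (100% = plants dead, 0% = like control).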

AVEFA [12] = experiment: as above; format: in vivo, Avena fatua; conditions: dosage 320 g/ha, visual scoring after about 3 weeks
Summary of the method: as §2

ECHCG [13] = experiment: as above; format: in vivo, Echinochloa crus-galli; conditions: dosage 320 g/ha, visual scoring after about 3 weeks
Summary of the method: as §2

LOLRI [14] = experiment: as above; format: in vivo, Lolium rigidum; conditions: dosage 320 g/ha, visual scoring after about 3 weeks vs untreated controls
Summary of the method: as §2

SETVI [15] = experiment: as above; format: in vivo, Setaria viridis; conditions: dosage 320 g/ha, visual scoring after about 3 weeks vs untreated controls
Summary of the method: as §2

ABUTH [16] = experiment: as above; format: in vivo, Abutilon theophrasti; conditions: dosage 320 g/ha, visual scoring after about 3 weeks vs untreated controls
Text: [table] a) Seeds of monocotyledonous and dicotyledonous weed plants and crop plants are placed in plastic or organic plant pots and covered with soil. The compounds of the invention, formulated in the form of wettable powders (WP) or as emulsion concentrates (EC), are then applied onto the surface of the covering soil as aqueous suspension or emulsion with addition of 0.5% additive at a water application rate of 600 1/ha (converted). After the treatment, the pots are placed in a greenhouse and kept under good growth conditions for the trial plants. After about 3 weeks, the effect of the preparations is scored visually in comparison with untreated controls as percentages. For example, 100% activity=the plants have died, 0% activity=like control plants. Tables B1 to B15 below show the effects of selected compounds of the general formula (I) according to Tables 1 and 2 on various harmful plants and an application rate corresponding to 320 g/ha and/or 80 g/ha, which were obtained by the experimental procedure mentioned above.

AMARE [17] = experiment: as above; format: in vivo, Amaranthus retroflexus; conditions: dosage 320 g/ha, visual scoring after about 3 weeks vs untreated controls
Summary of the method: as §2

MATIN [18] = experiment: as above; format: in vivo, Matricaria inodora; conditions: dosage 320 g/ha, visual scoring after about 3 weeks vs untreated controls
Summary of the method: as §2

PHBPU [19] = experiment: as above; format: in vivo, Pharbitis purpurea; conditions: dosage 320 g/ha, visual scoring after about 3 weeks vs untreated controls
Summary of the method: as §2

POLCO [20] = experiment: as above; format: in vivo, Polygonum convolvulus; conditions: dosage 320 g/ha, visual scoring after about 3 weeks vs untreated controls
Summary of the method: as §2

VERPE [21] = experiment: as above; format: in vivo, Veronica persica; conditions: dosage 320 g/ha, visual scoring after about 3 weeks vs untreated controls
Summary of the method: as §2

ABUTH [22] = experiment: Herbicidal post-emergence action 1a (greenhouse pots, visual rating); format: in vivo, Abutilon theophrasti; conditions: visual rating about 3 weeks after treatment
Summary of the method: as §1

Row | SMILES | Post-emergence action against AVEFA in % (AVEFA [2]; Dosage 320 g/ha) [%] | Post-emergence action against ECHCG in % (ECHCG [3]; Dosage 320 g/ha) [%] | Post-emergence action against LOLRI in % (LOLRI [4]; Dosage 320 g/ha) [%] | Post-emergence action against SETVI in % (SETVI [5]; Dosage 80 g/ha) [%] | Post-emergence action against SETVI in % (SETVI [5]; Dosage 320 g/ha) [%] | Post-emergence action against PHBPU in % (PHBPU [8]; dosage 320 g/ha) [%] | Post-emergence action against POLCO in % (POLCO [9]; dosage 320 g/ha) [%] | Post-emergence action against VERPE in % (VERPE [10]; dosage 80 g/ha) [%] | Post-emergence action against VERPE in % (VERPE [10]; dosage 320 g/ha) [%] | Pre-emergence action against ALOMY in % (ALOMY [11]) [%] | Pre-emergence action against AVEFA in % (AVEFA [12]) [%] | Pre-emergence action against ECHCG in % (ECHCG [13]) [%] | Pre-emergence action against LOLRI in % (LOLRI [14]) [%] | Pre-emergence action against SETVI in % (SETVI [15]) [%] | Pre-emergence action against ABUTH in % (ABUTH [16]) [%] | Pre-emergence action against AMARE in % (AMARE [17]) [%] | Pre-emergence action against MATIN in % (MATIN [18]) [%] | Pre-emergence action against PHBPU in % (PHBPU [19]) [%] | Pre-emergence action against POLCO in % (POLCO [20]) [%] | Pre-emergence action against VERPE in % (VERPE [21]) [%] | further results
1 | CCOC(=O)[C@@H](C)Oc1nn(-c2cnccn2)c(-c2cncc(F)c2)c1Br [Example I-99] | 100 | 90 | 100 | 90 | 90 | 90 | 80 | 90 | 90 | 100 | 90 | 100 | 100 | 100 | 90 | 100 | 100 | 90 | 90 | 100 | Post-emergence action against ALOMY in % (ALOMY [1]; Dosage 80 g/ha): 80%; Post-emergence action against ALOMY in % (ALOMY [1]; Dosage 320 g/ha): 100%; Post-emergence action against AVEFA in % (AVEFA [2]; Dosage 80 g/ha): 80%; Post-emergence action against ECHCG in % (ECHCG [3]; Dosage 80 g/ha): 90%; Post-emergence action against LOLRI in % (LOLRI [4]; Dosage 80 g/ha): 100%; Post-emergence action against AMARE in % (AMARE [6]; dosage 80 g/ha): 90%; Post-emergence action against AMARE in % (AMARE [6]; dosage 320 g/ha): 90%; Post-emergence action against MATIN in % (MATIN [7]; dosage 80 g/ha): 80%; Post-emergence action against MATIN in % (MATIN [7]; dosage 320 g/ha): 90%; Post-emergence action against PHBPU in % (PHBPU [8]; dosage 80 g/ha): 80%; Post-emergence action against POLCO in % (POLCO [9]; dosage 80 g/ha): 80%
2 | C[C@@H](Oc1nn(-c2cnccn2)c(-c2cncc(F)c2)c1Br)C(=O)O [Example I-96] | 90 | 90 | 100 | 90 | 90 | 90 | 80 | 90 | 90 | 100 | 90 | 100 | 100 | 100 | 90 | 100 | 100 | 90 | 100 | 100 | Post-emergence action against ALOMY in % (ALOMY [1]; Dosage 320 g/ha): 100%; Post-emergence action against ECHCG in % (ECHCG [3]; Dosage 80 g/ha): 80%; Post-emergence action against LOLRI in % (LOLRI [4]; Dosage 80 g/ha): 100%; Post-emergence action against MATIN in % (MATIN [7]; dosage 80 g/ha): 80%; Post-emergence action against MATIN in % (MATIN [7]; dosage 320 g/ha): 90%; Post-emergence action against PHBPU in % (PHBPU [8]; dosage 80 g/ha): 90%; Post-emergence action against POLCO in % (POLCO [9]; dosage 80 g/ha): 80%
3 | CCOC(=O)COc1nn(-c2cnccn2)c(-c2cncc(F)c2)c1Cl [Example I-91] | 90 | 90 | 90 | 80 | 90 | 90 | 80 | 80 | 80 | 80 | 90 | 100 | 100 | 100 | 90 | 100 | 100 | 90 | 90 | 90 | Post-emergence action against ABUTH in % (ABUTH [22]; dosage 80 g/ha): 80%; Post-emergence action against ABUTH in % (ABUTH [22]; dosage 320 g/ha): 80%; Post-emergence action against AMARE in % (AMARE [6]; dosage 80 g/ha): 80%; Post-emergence action against AMARE in % (AMARE [6]; dosage 320 g/ha): 90%; Post-emergence action against POLCO in % (POLCO [9]; dosage 80 g/ha): 80%
4 | CCOC(=O)[C@@H](C)Oc1nn(-c2cnccn2)c(-c2cncc(F)c2)c1Cl [Example I-98] | 80 | 80 | 90 | 80 | 80 | 90 | 80 | 80 | 80 | 90 | 80 | 100 | 90 | 100 | 90 | 100 | 90 | 80 | 90 | 100 | Post-emergence action against ALOMY in % (ALOMY [1]; Dosage 80 g/ha): 80%; Post-emergence action against ALOMY in % (ALOMY [1]; Dosage 320 g/ha): 80%; Post-emergence action against AVEFA in % (AVEFA [2]; Dosage 80 g/ha): 80%; Post-emergence action against ECHCG in % (ECHCG [3]; Dosage 80 g/ha): 80%; Post-emergence action against ABUTH in % (ABUTH [22]; dosage 80 g/ha): 80%; Post-emergence action against ABUTH in % (ABUTH [22]; dosage 320 g/ha): 80%; Post-emergence action against AMARE in % (AMARE [6]; dosage 320 g/ha): 80%; Post-emergence action against PHBPU in % (PHBPU [8]; dosage 80 g/ha): 90%
